# In patent US12214076B2, “Drug delivery vehicles for atherosclerosis nanomedicine” (Northwestern University, priority 2019, dated 2025):
# Ends that are not written are not given here. Peptide text beside a SMILES is read from it. * marks the point of attachment. Palmitoyl = CCCCCCCCCCCCCCCC(=O)*
# Tests used:
# [1] = system: atherosclerotic LDLR KO mice; test: In vivo proof of concept: PA nanofiber localization in aortic root; parameters: species or system mouse; conditions: 24 h after intravenous injection, high fat diet 14 weeks, 6 mg kg-1 PA
# Method: Mouse Model of Atherosclerosis and In Vivo Proof of Concept: LDLR-KO mice were fed a high fat “Western” diet (Teklad TD.88137) starting at 4 weeks of age. This diet consisted of 20% fat, 0.2% cholesterol, and 34% high sucrose. LDLR-KO mice fed this diet typically develop severe hypercholesterolemia (>800 mg/dL) and hypertriglyceridemia (>300 mg/dL) after only 2 weeks, and by 12 weeks on the high fat diet, atherosclerotic lesions are detected in the aortic root and aortic arch. After 14 weeks on the high fat diet, mice received intravenous injections of PA nanofibers dissolved in PBS (dorsal penile vein in males) under sterile conditions. Mice were briefly anesthetized for injection with inhaled isoflurane. After injection, mice were monitored and allowed to recover from anesthesia in a heated oxygen chamber. […] PA fluorescence was assessed with the HE CY3 filter (Zeiss filter #43) using excitation and emission wavelengths of 550-575 nm and 605-670 nm, respectively. Nuclear staining was performed with DAPI (4′,6-Diamidino-2-Phenylindole, Dilactate, ThermoFisher, Chicago, IL), and assessed with the DAPI filter (Zeiss filter #49) using excitation and emission wavelengths of 365-395 and 445-450 nm, respectively. Tissue autofluorescence was assessed with the green fluorescent protein filter (Zeiss filter #38) using excitation and emission wavelengths of 470-495 and 525-550 nm, respectively. […]
# [2] = TEM characterization of PA nanofibers for diameter and length (Example 3); format: physicochemical
# Method: Samples at 1 mM in PBS were prepared for TEM by plating on copper supports covered with thin carbon foil 400-mesh that were treated with glow discharge. […] Due to the overlapping fibers, automated tools including FiberApp could not be used to analyze the nanofibers. Instead, the TEM images were analyzed manually for nanofiber diameter and length using ImageJ software. Cryogenic TEM of samples was also performed using a JEOL 1230 at 100 kV accelerating voltage and Gatan 831 CCD camera. […] Samples were prepared at 1 mM in PBS blotted once for 3 seconds before plunging into liquid ethane using a Vitrobot Mark III (FEI) vitrification robot.
# LDLR KO mice [3] = test: Targeting of atherosclerosis by IV injected ApoA1 PA nanofibers (Example 3); format: in vivo, mouse; conditions: within 24 hours after injection, confocal, Alexa Fluor 546
# Method: (§1) Mouse model of atherosclerosis: To study atherosclerosis, the LDLR KO mouse was used. LDLR KO mice are fed a high fat “western” diet (Teklad TD.88137) starting at 4 weeks of age. This diet consists of 20% fat, 0.2% cholesterol, and 34% high sucrose. LDLR KO mice fed this diet typically develop severe hypercholesterolemia (>800 mg/dL) and hypertriglyceridemia (>300 mg/dL) after only 2 weeks. By 12 weeks on the high fat diet, atherosclerotic lesions are detected in the aortic root and aortic arch on cryosections stained with Oil Red O (Sigma). Atherosclerosis was quantified in the aortic root as a percentage of the aortic root by taking the atherosclerotic area divided by the total aortic root area. Measurements were made with ImageJ software. All protocols for the animal model and procedures in this manuscript were approved by Northwestern University's Institutional Animal Care and Use Committee.
# Injection of PA nanofibers: PA nanofibers were dissolved at 2-4 mg/mL concentration in room temperature phosphate buffered saline (PBS). After 14 weeks on the high fat diet, mice received intravenous injections of PA nanofiber dissolved in PBS (dorsal penile vein in males, retro-orbital injection in females) using a 31 G hypodermic insulin needle on a 0.3 mL syringe under sterile conditions and magnification (NIKON SMZ 645 Zoom Stereomicroscope). Mice were briefly anesthetized for injection with inhaled isoflurane. Mice were monitored and allowed to recover from anesthesia in a heated oxygen chamber.
# Dose and concentration study: To determine the optimum concentration for targeting efficacy and safety, LDLR KO mice fed the high fat diet for 14 weeks were injected with PA nanofiber at concentrations of 1 mg/mL, 2 mg/mL, and 4 mg/mL at 8 mg/kg in PBS. Similarly, to determine the optimum dose for targeting efficacy and safety, LDLR KO mice fed the high fat diet for 14 weeks were injected at PA nanofiber doses of 8 mg/kg, 6 mg/kg, 4 mg/kg, 3.3 mg/kg, and 1.7 mg/kg at 2 mg/mL in PBS. Safety, optimum dose, and concentration for targeting was assessed by survival of the animal and fluorescent pixel quantification in the aortic root, liver, lungs, kidneys, and spleen.
# (§2) Tissue processing and imaging: Mice were sacrificed and euthanized under inhaled isoflurane anesthesia by diaphragm disruption and exsanguination. Phlebotomy was performed through direct right ventricular cardiac puncture using a 1 mL syringe and 25 G needle. Perfusion was performed through left ventricular cardiac puncture with 10 mL PBS and 10 mL 10% sucrose solution. The lungs, liver, spleen, kidney, aortic root, aortic arch, and descending aorta were harvested and stored in 10% sucrose for 20 minutes. Organs and vessels were then flash-frozen in Optimal Cutting Temperature embedding medium 4583 (Tissue-Tek®) with liquid nitrogen. Frozen specimens were stored at −80° C. and cryosectioned at […]. Confocal microscopy was performed on a Nikon AIR microscope. Two sets of images were acquired with a 10× Plan Fluor NA 0.3 objective. PAs were identified through quantification of the Alexa Fluor® 546 conjugated dye with 561 nm excitation and a 600/50 nm emission filter.
# Images were acquired with spectral detection and spectrally unmixed to accurately separate green autofluorescence from the red Alexa Fluor® 546 signal. Brightfield and fluorescent microscopy were performed using a Zeiss Axio Imager.A2 microscope with AxioVision software (release 4.8.2, 06-2010). All confocal and fluorescent sections were mounted with ProGold Diamond mounting media (Sigma). Slides were stained with Oil Red O to image and quantify atherosclerosis under brightfield microscopy. The elastic laminae were identified using the green fluorescent protein (GFP) filter with an exposure time of 3500 ms under 5× magnification. Nanofibers were identified in the aortic root by presence of Alexa Fluor® 546 on the Cy3 filter under 5-10× magnification, and in the internal organs under 20× magnification. […]
# LDLR KO mice [4] = test: Atherosclerosis treatment study; format: in vivo, mouse
# Method: as §1
# (§3) Blood samples were collected at the end of the treatment study for toxicology analysis. Mice were euthanized three days after their 16th treatment.
# as §2
# Images were acquired with spectral detection and spectrally unmixed to accurately separate green autofluorescence from the red Alexa Fluor® 546 signal. Brightfield and fluorescent microscopy were performed using a Zeiss Axio Imager.A2 microscope with AxioVision software (release 4.8.2, 06-2010). All confocal and fluorescent sections were mounted with ProGold Diamond mounting media (Sigma). Slides were stained with Oil Red O to image and quantify atherosclerosis under brightfield microscopy. The elastic laminae were identified using the green fluorescent protein (GFP) filter with an exposure time of 3500 ms under 5× magnification. Nanofibers were identified in the aortic root by presence of Alexa Fluor® 546 on the Cy3 filter under 5-10× magnification, and in the internal organs under 20× magnification. Fluorescent pixel quantification in the aortic root and within organs was performed with ImageJ software.
# (§4) Statistics: The effect of treatments and sex on atherosclerosis progression in mice was analyzed using one- or two-factor analysis of variance (ANOVA) followed by a post-hoc student's t-test. The toxicological effects of treatments were also analyzed using two-factor ANOVA and a post-hoc student's t-test. Toxicological effects of treatments on liver proteins AST, ALT, and ALP were further analyzed using ordinal logistic regression models of likelihood ratio tests, followed by a post-hoc Wald test
# [5] = Treatment study serum chemistry (toxicology analysis); format: in vivo, mouse; conditions: mouse, in vivo
# Method: as §3, §2, §4
# [6] = ROS-Ac2-26 PA cleavage assay with SIN-1; format: physicochemical
# Method: ROS-Ac2-26 and MMP-Ac2-26 PA cleavage assays: To examine ROS-mediated cleavage, 3-morpholinosydnonimine hydrochloride (SIN-1, Sigma-Aldrich or Abcam) was used. ROS-Ac2-26 PAs were reconstituted to 0.5 mM in phosphate buffer and treated with 100 μM SIN-1 for 24 hours at 37° C. For MMP2/9-mediated cleavage, human recombinant MMP2 (R&D systems, carrier-free) was used, activated with freshly prepared 1 mMp-aminophenylmercuric acetate (APMA, Sigma-Aldrich) for one hour at 37° C. The APMA disrupts the cysteine-zinc bond in MMP2 responsible for enzyme latency by liberation of the sulfhydryl group. 10% MMP-Ac2-26 PA co-assemblies were prepared at 0.5 mM in a cleavage buffer containing 50 mM tricine, 50 mM NaCl, 50 μM ZnCl2, and 10 mM CaCl2) at pH 7.4, and treated with 40 nM human recombinant MMP2 for 24 hours at 37° C. At the end of each time point, the samples were stored at −20° C., effectively stopping the cleavage reactions. Samples were analyzed at room temperature, 0.04-0.3 mg/mL with 0.1% NH4OH using a ThermoFisher Q Exactive HIF-X (ThermoFisher, Bremen, Germany) mass spectrometer coupled with a Waters Acquity H-class liquid chromatograph system. […] All measurements were recorded at a resolution setting of 120,000. […] Injection volume for all samples was […]. Data was analyzed on Xcalibur (ThermoFisher, Breman, Germany).
# [7] = read-out: dissociation constant for PEIPC; cited from earlier work
# [8] = 30 measurements from three images
# [9] = 30 measurements from three images, listed as Ser PA
# [10] = 30 measurements from three images, listed as scrambled
compound,measurement,setting,value
CCCCCCCCCCCCCCCC(=O)N[C@H](C(=O)N[C@H](C(=O)N[C@@H](C)C(=O)N[C@@H](C)C(=O)N[C@@H](CCC(=O)O)C(=O)N[C@@H](CCC(=O)O)C(=O)N[C@@H](CS)C(=O)N[C@@H](CC(=O)O)C(=O)N[C@@H](Cc1c[nH]c2ccccc12)C(=O)N[C@@H](Cc1ccccc1)C(=O)N[C@@H](C)C(=O)N[C@@H](CCCCN)C(=O)N[C@@H](CC(=O)O)C(=O)N[C@@H](Cc1ccc(O)cc1)C(=O)N[C@@H](Cc1ccccc1)C(=O)N[C@@H](CCCCN)C(=O)N[C@@H](CCCCN)C(=O)N[C@@H](C)C(=O)N[C@@H](Cc1ccccc1)C(=O)N[C@H](C(=O)N[C@@H](CCC(=O)O)C(=O)N[C@@H](CCC(=O)O)C(=O)N[C@@H](Cc1ccccc1)C(=O)N[C@@H](C)C(=O)N[C@@H](CCCCN)C(N)=O)C(C)C)C(C)C)C(C)C [Scr PA] (Palmitoyl-VVAAEECDWFAKDYFKKAFVEEFAK-NH2),localization of nanofibers to areas of atherosclerotic plaque in the aortic root,[1],does not reveal evidence of nanofiber localization
same,Diameter (nm) Median,[2]; [8],14.2 nm
same,Length (nm) Average,[2]; [8],403.8 nm
same,Diameter (nm) Average,[2]; [9],13.8 nm
same,Length (nm) Median,[2]; [9],257.6 nm
same,Diameter (nm) Average,[2]; [10],13.8±2.4 nm
same,Length (nm) Median,[2]; [10],258 nm
same,localization to areas of atherosclerosis,LDLR KO mice [3],did not localize to areas of atherosclerosis
same,atherosclerosis progression in comparison to the PBS control,"LDLR KO mice [4]; both sexes, twice per week over eight weeks, percent of atherosclerosis in the aortic root",significantly decreased
same,reduction of atherosclerosis in females in comparison to males,"LDLR KO mice [4]; mouse, in vivo",greater effects upon reducing atherosclerosis in females
same,AST levels in comparison to the PBS control,[5],no significant differences
same,Creatine,[5],0 U/L
same,Sodium,[5],138 mmol/L
same,Total Protein,[5],5.4 g/dL
same,aspartate aminotransferase (AST) in the blood in comparison to PBS,[5],significantly elevated levels of aspartate aminotransferase (AST)
C16-V2A2 (SEQ ID NO: 8)-E2-KP5K (SEQ ID NO: 10)-AMVSEFLKQAWFIENEEQEYVQTVK SEQ ID NO: 7-NH2 [ROS-Ac2-26 PA],Ac2-26 release from PA,"[6]; 100 μM SIN-1, 24 hours, 37° C.",released Ac2-26
same,Ac2-26 cleavage without SIN-1 treatment,[6]; untreated,showed the presence of cleaved Ac2-26 peptide
"DWFKAFYDKVAEKFKEAF (SEQ ID NO: 2)-NH2 (DWFKAFYDKVAEKFKEAF-NH2) [4F, 18 amino acid ApoA1 mimetic peptide]",nanofiber formation,[2],No nanofiber formation
same,localization to areas of atherosclerosis,LDLR KO mice [3],localized to areas of atherosclerosis
same,Kd,[7],1e-05 µM
native ApoA1: main protein component of high density lipoprotein (HDL) cholesterol,Kd,[7],50 µM
